Results on 40 compounds are retold here after ChEMBL document CHEMBL1141493, “Synthesis and structure-activity relationships of heteroaryl substituted-3,4-diamino-3-cyclobut-3-ene-1,2-dione CXCR2/CXCR1 receptor antagonists” (Bioorg Med Chem Lett, 2008).

Activity calls are given as the source filed them. No cut-off for these calls is given here.

Series [1] has as its target T1, C-X-C chemokine receptor type 2 (Homo sapiens, UniProt P25025).
T1 sequence (P25025 whole entry): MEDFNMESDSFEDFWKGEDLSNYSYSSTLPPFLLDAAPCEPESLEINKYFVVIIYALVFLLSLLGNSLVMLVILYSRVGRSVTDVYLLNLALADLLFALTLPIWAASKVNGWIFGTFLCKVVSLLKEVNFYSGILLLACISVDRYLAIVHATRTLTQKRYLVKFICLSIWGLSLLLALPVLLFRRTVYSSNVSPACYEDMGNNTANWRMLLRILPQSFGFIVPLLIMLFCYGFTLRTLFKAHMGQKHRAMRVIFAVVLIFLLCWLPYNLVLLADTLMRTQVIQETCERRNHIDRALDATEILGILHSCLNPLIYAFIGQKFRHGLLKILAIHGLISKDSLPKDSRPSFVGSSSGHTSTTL
The series can be described thus: Inhibition of CXCR2.

The target in series [2] is T2, C-X-C chemokine receptor type 1 (Homo sapiens, UniProt P25024).
T2 sequence (P25024 whole entry): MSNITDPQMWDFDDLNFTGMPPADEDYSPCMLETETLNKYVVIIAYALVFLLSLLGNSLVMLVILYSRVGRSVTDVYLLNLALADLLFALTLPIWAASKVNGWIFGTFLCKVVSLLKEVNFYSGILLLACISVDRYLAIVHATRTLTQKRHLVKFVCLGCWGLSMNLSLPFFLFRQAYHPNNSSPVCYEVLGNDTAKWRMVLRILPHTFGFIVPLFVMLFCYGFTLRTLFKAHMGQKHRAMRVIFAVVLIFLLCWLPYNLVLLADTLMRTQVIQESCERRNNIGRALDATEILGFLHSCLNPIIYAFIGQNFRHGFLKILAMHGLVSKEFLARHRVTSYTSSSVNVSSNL
In words: Inhibition of CXCR1.

A short description of series [3]: AUC in rat at 10 mg/kg, po. The series is classed as ADME, organism-based. Set-up: dose 10 mg/kg, route oral. The note with it: plasma.
The target in series [4] is T3, C-X-C chemokine receptor type 1 (Homo sapiens) (UniProt P25024).
T3 sequence (whole entry): T2 sequence (P25024 whole entry)
The series can be described thus: Inhibition of CXCR1-mediated chemotaxis in Ba/F3 cells expressing human CXCR1 at >10000 nM. The note with it: BaF3. It is filed as cell-based.

The target of series [5] is T3, C-X-C chemokine receptor type 1 (Homo sapiens). In words: Inhibition of CXCR1 at >10000 nM.

Regarding `CCC(Nc1c(Nc2cccc(C(=O)N(C)C)c2O)c(=O)c1=O)c1ccoc1` (stereo not given), the figures for the IC50 in series [1] and in series [2] were 8 nM and 812 nM, respectively.
For the compound `CCC(Nc1c(Nc2cccc(C(=O)N(C)C)c2O)c(=O)c1=O)c1ccc(C(F)F)o1` (stereo not given), the half-maximal inhibitory concentration (IC50) in series [1] is 6.8 nM; in series [2], 568 nM.
For `CCC(Nc1c(Nc2cccc(C(=O)N(C)C)c2O)c(=O)c1=O)c1occc1Br` (stereo not given), in that order: 16.5 nM and 1020 nM.
For `CCC(Nc1c(Nc2cccc(C(=O)N(C)C)c2O)c(=O)c1=O)c1cc(-c2ccsc2)co1` (stereo not given), in that order: 8.2 nM and 221 nM.
For `CCC(Nc1c(Nc2cccc(C(=O)N(C)C)c2O)c(=O)c1=O)c1nc(C)no1` (stereo not given), in that order: 8.2 nM and 289 nM.
As to `CC[C@@H](Nc1c(Nc2cccc(C(=O)N(C)C)c2O)c(=O)c1=O)c1cc(Br)co1`, the IC50 was 3.5 nM in series [1] and 55 nM in series [2]. Also, the AUC in series [3] is 33.4 µM·h.
Regarding `CCC(Nc1c(Nc2cccc(C(=O)N(C)C)c2O)c(=O)c1=O)c1cc(C)on1` (stereo not given), the IC50 in series [1] came out at 7.5 nM; in series [2], 224 nM.
For `CCC(Nc1c(Nc2cccc(C(=O)N(C)C)c2O)c(=O)c1=O)c1ccco1` (stereo not given), in that order: 5 nM and 67 nM.
As to `CC[C@@H](Nc1c(Nc2cccc(C(=O)N(C)C)c2O)c(=O)c1=O)c1ccsc1`, the IC50 was 3.4 nM in series [1] and 104 nM in series [2].
For `CCC(Nc1c(Nc2cccc(C(=O)N(C)C)c2O)c(=O)c1=O)c1cc(-c2ccccc2)co1` (stereo not given), in that order: 6.1 nM and 150 nM.
For `CC[C@@H](Nc1c(Nc2cccc(C(=O)N(C)C)c2O)c(=O)c1=O)c1cc(C)on1`, the values for the IC50 in series [1] and in series [2] were 6.3 nM and 171 nM, respectively. The AUC in series [3] worked out at 3.7 µM·h. Further, the result in series [4] was inactive.
In the case of `CCC(Nc1c(Nc2cccc(C(=O)N(C)C)c2O)c(=O)c1=O)c1cc2ccccc2o1` (stereo not given), the concentration for half-maximal inhibition (IC50) in series [1] is 3.5 nM; in series [2] it was 412 nM.
For `CCC(Nc1c(Nc2cccc(C(=O)N(C)C)c2O)c(=O)c1=O)c1ccno1` (stereo not given), in that order: 9.8 nM and 302 nM.
Take `CC[C@@H](Nc1c(Nc2cccc(C(=O)N(C)C)c2O)c(=O)c1=O)c1ccccn1`: the IC50 was 3.3 nM in series [1] and 148 nM in series [2]. Besides, the result in series [4] was inactive.
Consider `CCC(Nc1c(Nc2cccc(C(=O)N(C)C)c2O)c(=O)c1=O)c1ccc(-c2cccc(Cl)c2)o1` (stereo not given), for which the IC50 was 58 nM in series [1] and 3380 nM in series [2].
For `CCC(Nc1c(Nc2cccc(C(=O)N(C)C)c2O)c(=O)c1=O)c1cc(Br)co1` (stereo not given), in that order: 5 nM and 93 nM.
For `CCC(Nc1c(Nc2cccc(C(=O)N(C)C)c2O)c(=O)c1=O)c1ccc(Cl)s1` (stereo not given), in that order: 6.2 nM and 1110 nM.
As for `CCC(Nc1c(Nc2cccc(C(=O)N(C)C)c2O)c(=O)c1=O)c1cc(-c2ccncc2)co1` (stereo not given), the IC50 in series [1] was found to be 9.5 nM; in series [2], 526 nM.
For `CCC(Nc1c(Nc2cccc(C(=O)N(C)C)c2O)c(=O)c1=O)c1cc(-c2c(C)noc2C)co1` (stereo not given), in that order: 7.6 nM and 345 nM.
`CCC(Nc1c(Nc2cccc(C(=O)N(C)C)c2O)c(=O)c1=O)c1ccc(CN(C)C)o1` (stereo not given): the outcome in series [5] was inactive. The same compound showed an IC50 in series [1] of 94 nM.
As to `CCC(Nc1c(Nc2cccc(C(=O)N(C)C)c2O)c(=O)c1=O)c1ccc(Cl)o1` (stereo not given), the IC50 in series [1] is 4.8 nM; in series [2], 275 nM.
For `CCC(Nc1c(Nc2cccc(C(=O)N(C)C)c2O)c(=O)c1=O)c1ccsc1` (stereo not given), in that order: 5.8 nM and 165 nM.
For `CCC(Nc1c(Nc2cccc(C(=O)N(C)C)c2O)c(=O)c1=O)c1ncco1` (stereo not given), in that order: 8.6 nM and 795 nM.
For `CCC(Nc1c(Nc2cccc(C(=O)N(C)C)c2O)c(=O)c1=O)c1ccc(CO)o1` (stereo not given), in that order: 2.8 nM and 182 nM.
For the compound `CCC(Nc1c(Nc2cccc(C(=O)N(C)C)c2O)c(=O)c1=O)c1cocn1` (stereo not given), the results for the IC50 in series [1] and in series [2] were 10.9 nM and 805 nM, respectively.
Regarding `CCC(Nc1c(Nc2cccc(C(=O)N(C)C)c2O)c(=O)c1=O)c1nccs1` (stereo not given), the IC50 amounted to 9.8 nM in series [1] and 703 nM in series [2].
As to `CCC(Nc1c(Nc2cccc(C(=O)N(C)C)c2O)c(=O)c1=O)c1ccc(-c2ccccc2C(F)(F)F)o1` (stereo not given), the result in series [5] was inactive. The same compound gave a half-inhibitory concentration (IC50) in series [1] of 150 nM.
Regarding `CCC(Nc1c(Nc2cccc(C(=O)N(C)C)c2O)c(=O)c1=O)c1ccc(C(F)(F)F)o1` (stereo not given), the IC50 in series [1] came to 17.2 nM; in series [2], 6060 nM.
`CCC(Nc1c(Nc2cccc(C(=O)N(C)C)c2O)c(=O)c1=O)c1ccc(C(=O)N(C)C)o1` (stereo not given): in series [5], the outcome was inactive. This compound also yielded an IC50 in series [1] of 171 nM.
Regarding `CCC(Nc1c(Nc2cccc(C(=O)N(C)C)c2O)c(=O)c1=O)c1cccs1` (stereo not given), the IC50 in series [1] turned out to be 6.2 nM; in series [2], 179 nM.
For `CCC(Nc1c(Nc2cccc(C(=O)N(C)C)c2O)c(=O)c1=O)c1ccncc1` (stereo not given), in that order: 50 nM and 2860 nM.
For `CCc1ccc(C(CC)Nc2c(Nc3cccc(C(=O)N(C)C)c3O)c(=O)c2=O)o1` (stereo not given), in that order: 4.1 nM and 854 nM.
For `CCC(Nc1c(Nc2cccc(C(=O)N(C)C)c2O)c(=O)c1=O)c1ccc(-c2ccccc2Cl)o1` (stereo not given), the results for the IC50 in series [1] and in series [2] were 49 nM and 4870 nM, respectively.
For `CCC(Nc1c(Nc2cccc(C(=O)N(C)C)c2O)c(=O)c1=O)c1ccc(-c2cccc(C(F)(F)F)c2)o1` (stereo not given), in that order: 87 nM and 3430 nM.
Consider `CCC(Nc1c(Nc2cccc(C(=O)N(C)C)c2O)c(=O)c1=O)c1cccn1C` (stereo not given), for which the result in series [5] was inactive. In addition, the concentration for half-maximal inhibition (IC50) in series [1] came to 815 nM.
As to `CC[C@@H](Nc1c(Nc2cccc(C(=O)N(C)C)c2O)c(=O)c1=O)c1ccc(Cl)o1`, the results for the half-inhibitory concentration (IC50) in series [1] and in series [2] were 4.6 nM and 244 nM, respectively.
For `CCC(Nc1c(Nc2cccc(C(=O)N(C)C)c2O)c(=O)c1=O)c1cc(Cl)co1` (stereo not given), in that order: 4.5 nM and 100 nM.
For `CCC(Nc1c(Nc2cccc(C(=O)N(C)C)c2O)c(=O)c1=O)c1ccc(Br)o1` (stereo not given), in that order: 4.7 nM and 463 nM.
`CC[C@@H](Nc1c(Nc2cccc(C(=O)N(C)C)c2O)c(=O)c1=O)c1cc(Cl)co1`: the values for the IC50 in series [1] and in series [2] were 3.8 nM and 62 nM, respectively. In addition, the AUC in series [3] amounted to 21.5 µM·h.
Take `CCC(Nc1c(Nc2cccc(C(=O)N(C)C)c2O)c(=O)c1=O)c1sccc1Cl` (stereo not given): the 50% inhibitory concentration (IC50) is 21 nM in series [1] and 1370 nM in series [2].

A word on the IC50: it is the concentration that inhibits the measured activity by half. As usually defined, the AUC is concentration integrated over time. A higher AUC goes with more exposure.
